ChEMBL document CHEMBL5291721, “A preclinical secondary pharmacology resource illuminates target-adverse drug reaction associations of marketed drugs” (Nat Commun, 2023)

Assays:
Androgen receptor = molecular target: T1, Androgen receptor (Rattus norvegicus, UniProt P15207)
T1 sequence (P15207 whole entry): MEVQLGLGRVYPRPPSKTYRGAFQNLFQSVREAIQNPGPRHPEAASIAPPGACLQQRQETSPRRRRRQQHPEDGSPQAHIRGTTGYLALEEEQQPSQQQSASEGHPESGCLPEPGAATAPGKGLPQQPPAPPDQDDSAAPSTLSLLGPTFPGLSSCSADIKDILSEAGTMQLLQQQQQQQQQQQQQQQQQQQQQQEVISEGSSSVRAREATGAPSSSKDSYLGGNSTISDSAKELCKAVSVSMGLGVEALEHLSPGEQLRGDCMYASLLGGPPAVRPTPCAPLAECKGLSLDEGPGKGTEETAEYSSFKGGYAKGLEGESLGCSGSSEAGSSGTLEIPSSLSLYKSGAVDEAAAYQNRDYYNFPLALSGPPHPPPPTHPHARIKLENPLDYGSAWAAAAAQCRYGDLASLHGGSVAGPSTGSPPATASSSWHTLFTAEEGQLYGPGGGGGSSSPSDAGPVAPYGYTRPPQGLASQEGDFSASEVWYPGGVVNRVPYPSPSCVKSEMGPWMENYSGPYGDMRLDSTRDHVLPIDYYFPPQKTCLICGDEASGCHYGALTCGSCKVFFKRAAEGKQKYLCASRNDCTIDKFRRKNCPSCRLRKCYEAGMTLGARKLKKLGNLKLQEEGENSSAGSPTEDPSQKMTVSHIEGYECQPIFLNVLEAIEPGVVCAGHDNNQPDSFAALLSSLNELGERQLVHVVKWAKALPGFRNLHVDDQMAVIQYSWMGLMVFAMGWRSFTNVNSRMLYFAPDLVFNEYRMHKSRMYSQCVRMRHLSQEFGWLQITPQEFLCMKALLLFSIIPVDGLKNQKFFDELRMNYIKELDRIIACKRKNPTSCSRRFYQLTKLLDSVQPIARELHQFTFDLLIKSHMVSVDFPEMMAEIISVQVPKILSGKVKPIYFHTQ

[1] = molecular target: Sodium channel protein type 5 subunit alpha (Homo sapiens, UniProt Q14524); assay type: functional, cell-based
Sodium channel protein type 5 subunit alpha, sequence (Q14524 whole entry): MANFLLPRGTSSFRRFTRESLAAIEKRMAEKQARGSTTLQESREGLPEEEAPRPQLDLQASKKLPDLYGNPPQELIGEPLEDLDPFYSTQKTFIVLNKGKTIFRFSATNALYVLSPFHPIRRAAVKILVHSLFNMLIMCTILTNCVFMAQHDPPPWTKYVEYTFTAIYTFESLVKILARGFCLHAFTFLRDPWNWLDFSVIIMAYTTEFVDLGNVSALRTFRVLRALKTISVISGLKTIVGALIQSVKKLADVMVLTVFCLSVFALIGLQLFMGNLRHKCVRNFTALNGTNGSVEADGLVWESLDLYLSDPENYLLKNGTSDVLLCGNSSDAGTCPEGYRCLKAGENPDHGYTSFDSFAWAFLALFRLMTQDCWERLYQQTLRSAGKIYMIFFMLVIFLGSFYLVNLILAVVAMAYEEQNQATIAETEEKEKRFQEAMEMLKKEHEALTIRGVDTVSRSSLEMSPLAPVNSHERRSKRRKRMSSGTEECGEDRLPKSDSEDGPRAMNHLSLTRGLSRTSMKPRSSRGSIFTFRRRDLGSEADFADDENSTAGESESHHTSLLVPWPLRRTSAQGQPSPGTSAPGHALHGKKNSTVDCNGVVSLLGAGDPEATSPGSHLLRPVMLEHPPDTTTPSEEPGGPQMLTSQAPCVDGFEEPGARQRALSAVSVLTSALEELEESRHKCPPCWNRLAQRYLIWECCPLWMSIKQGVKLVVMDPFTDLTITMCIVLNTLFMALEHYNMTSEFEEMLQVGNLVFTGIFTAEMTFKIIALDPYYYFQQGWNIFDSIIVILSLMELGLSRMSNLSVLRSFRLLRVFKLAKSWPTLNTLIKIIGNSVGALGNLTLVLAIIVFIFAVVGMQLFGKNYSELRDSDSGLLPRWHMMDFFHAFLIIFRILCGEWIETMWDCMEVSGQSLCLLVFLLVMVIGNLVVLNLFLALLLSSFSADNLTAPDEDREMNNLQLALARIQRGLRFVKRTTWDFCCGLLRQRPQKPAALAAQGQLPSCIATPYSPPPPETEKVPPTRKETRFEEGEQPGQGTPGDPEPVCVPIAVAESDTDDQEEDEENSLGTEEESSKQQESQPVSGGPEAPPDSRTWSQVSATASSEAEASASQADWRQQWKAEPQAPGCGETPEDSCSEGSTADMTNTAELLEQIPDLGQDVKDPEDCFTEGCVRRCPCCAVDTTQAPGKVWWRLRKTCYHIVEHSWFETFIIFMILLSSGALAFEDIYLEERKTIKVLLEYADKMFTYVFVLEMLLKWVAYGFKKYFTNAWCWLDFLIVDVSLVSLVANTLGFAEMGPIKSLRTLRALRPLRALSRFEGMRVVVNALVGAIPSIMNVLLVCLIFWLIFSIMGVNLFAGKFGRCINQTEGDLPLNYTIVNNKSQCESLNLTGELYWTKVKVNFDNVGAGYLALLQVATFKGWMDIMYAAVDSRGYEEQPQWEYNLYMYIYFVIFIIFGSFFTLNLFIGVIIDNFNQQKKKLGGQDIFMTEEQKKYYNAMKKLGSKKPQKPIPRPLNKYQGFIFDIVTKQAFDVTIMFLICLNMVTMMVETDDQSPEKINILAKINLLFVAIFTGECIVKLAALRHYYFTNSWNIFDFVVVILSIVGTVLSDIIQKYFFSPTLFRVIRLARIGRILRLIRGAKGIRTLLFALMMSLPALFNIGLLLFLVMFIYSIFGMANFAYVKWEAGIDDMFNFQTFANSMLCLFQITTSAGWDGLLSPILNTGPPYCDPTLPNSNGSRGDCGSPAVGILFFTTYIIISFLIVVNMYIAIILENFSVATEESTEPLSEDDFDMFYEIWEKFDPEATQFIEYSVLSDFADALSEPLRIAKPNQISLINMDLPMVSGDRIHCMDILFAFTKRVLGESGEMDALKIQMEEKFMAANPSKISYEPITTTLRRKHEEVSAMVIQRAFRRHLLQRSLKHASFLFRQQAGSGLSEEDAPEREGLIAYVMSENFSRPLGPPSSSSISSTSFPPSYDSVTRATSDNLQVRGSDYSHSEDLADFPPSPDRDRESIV

[2] = molecular target: Voltage-dependent L-type calcium channel subunit alpha-1C (Homo sapiens, UniProt Q13936); assay type: functional, cell-based
[3] = molecular target: T2, Corticotropin-releasing factor receptor 1 (Homo sapiens, UniProt P34998)
T2 sequence (P34998 whole entry): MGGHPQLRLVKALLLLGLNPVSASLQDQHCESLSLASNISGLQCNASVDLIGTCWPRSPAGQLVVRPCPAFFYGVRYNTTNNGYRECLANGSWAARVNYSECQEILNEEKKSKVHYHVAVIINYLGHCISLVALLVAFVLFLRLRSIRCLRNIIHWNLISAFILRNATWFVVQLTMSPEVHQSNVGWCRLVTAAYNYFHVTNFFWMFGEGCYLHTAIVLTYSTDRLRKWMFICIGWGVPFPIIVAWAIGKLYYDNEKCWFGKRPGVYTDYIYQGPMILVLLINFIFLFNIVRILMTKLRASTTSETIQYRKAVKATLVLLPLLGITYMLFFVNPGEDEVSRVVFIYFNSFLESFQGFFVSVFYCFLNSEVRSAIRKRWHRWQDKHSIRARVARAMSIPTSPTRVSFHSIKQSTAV

[4] = molecular target: T3, Muscarinic acetylcholine receptor M5 (Homo sapiens, UniProt P08912)
T3 sequence (P08912 whole entry): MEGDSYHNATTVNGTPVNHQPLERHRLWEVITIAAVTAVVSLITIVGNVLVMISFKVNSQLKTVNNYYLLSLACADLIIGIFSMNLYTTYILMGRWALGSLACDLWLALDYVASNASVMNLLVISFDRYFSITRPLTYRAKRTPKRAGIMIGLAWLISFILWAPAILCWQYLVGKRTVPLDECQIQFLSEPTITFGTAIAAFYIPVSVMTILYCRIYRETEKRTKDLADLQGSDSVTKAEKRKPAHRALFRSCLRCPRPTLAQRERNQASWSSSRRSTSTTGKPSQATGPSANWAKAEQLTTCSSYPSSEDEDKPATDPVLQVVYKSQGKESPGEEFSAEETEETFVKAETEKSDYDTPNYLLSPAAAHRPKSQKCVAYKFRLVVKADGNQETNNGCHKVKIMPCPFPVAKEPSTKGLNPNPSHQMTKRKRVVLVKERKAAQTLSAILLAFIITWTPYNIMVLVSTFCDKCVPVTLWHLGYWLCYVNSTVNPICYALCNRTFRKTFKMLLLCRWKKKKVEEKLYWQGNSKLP

[5] = molecular target: Gamma-aminobutyric acid type B receptor subunit 1 (Homo sapiens, UniProt Q9UBS5)
Gamma-aminobutyric acid type B receptor subunit 1, sequence (Q9UBS5 whole entry): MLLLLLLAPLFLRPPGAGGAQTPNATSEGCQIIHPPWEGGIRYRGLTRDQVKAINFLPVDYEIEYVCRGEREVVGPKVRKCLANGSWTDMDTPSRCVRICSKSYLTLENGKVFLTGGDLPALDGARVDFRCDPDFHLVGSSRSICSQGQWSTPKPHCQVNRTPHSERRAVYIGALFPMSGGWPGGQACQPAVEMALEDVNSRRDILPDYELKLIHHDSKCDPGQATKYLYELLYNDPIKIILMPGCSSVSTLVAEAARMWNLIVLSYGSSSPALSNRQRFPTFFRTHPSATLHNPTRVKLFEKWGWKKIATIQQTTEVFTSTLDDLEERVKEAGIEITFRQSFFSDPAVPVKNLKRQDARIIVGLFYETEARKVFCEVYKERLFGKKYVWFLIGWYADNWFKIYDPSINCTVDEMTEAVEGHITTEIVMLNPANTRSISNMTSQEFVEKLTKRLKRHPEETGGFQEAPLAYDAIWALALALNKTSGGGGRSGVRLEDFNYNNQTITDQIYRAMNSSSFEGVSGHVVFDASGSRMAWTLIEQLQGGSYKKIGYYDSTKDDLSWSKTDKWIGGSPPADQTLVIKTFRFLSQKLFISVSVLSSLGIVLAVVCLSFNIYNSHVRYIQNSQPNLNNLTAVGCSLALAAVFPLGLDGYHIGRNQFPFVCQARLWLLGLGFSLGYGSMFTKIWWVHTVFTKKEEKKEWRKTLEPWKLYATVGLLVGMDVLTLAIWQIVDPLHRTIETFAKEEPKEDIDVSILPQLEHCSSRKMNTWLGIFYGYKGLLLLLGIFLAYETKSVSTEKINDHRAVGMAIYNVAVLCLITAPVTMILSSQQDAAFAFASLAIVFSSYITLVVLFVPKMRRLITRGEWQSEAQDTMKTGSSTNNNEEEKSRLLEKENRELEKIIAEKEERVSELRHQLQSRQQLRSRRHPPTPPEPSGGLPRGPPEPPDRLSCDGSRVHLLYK

D(1A) dopamine receptor [6] = molecular target: T4, D(1A) dopamine receptor (Homo sapiens, UniProt P21728); assay type: functional, cell-based
T4 sequence (P21728 whole entry): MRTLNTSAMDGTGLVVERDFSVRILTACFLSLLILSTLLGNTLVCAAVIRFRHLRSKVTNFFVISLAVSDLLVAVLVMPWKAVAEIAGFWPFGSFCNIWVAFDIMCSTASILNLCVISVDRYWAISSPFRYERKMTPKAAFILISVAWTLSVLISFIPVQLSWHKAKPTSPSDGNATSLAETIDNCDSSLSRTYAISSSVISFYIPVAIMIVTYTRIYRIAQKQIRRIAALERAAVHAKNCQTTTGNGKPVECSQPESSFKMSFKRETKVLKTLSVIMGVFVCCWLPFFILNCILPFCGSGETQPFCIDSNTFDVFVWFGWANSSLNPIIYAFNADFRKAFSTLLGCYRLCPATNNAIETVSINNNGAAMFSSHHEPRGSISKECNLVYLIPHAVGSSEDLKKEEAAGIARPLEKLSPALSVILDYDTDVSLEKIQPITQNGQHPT

D(1B) dopamine receptor = D(1B) dopamine receptor (Homo sapiens, UniProt P21918)
[7] = molecular target: 5-hydroxytryptamine receptor 5A (Homo sapiens, UniProt P47898)
[8] = molecular target: Rod cGMP-specific 3',5'-cyclic phosphodiesterase subunit alpha (Homo sapiens, UniProt P16499); assay type: functional
Rod cGMP-specific 3',5'-cyclic phosphodiesterase subunit alpha, sequence (P16499 whole entry): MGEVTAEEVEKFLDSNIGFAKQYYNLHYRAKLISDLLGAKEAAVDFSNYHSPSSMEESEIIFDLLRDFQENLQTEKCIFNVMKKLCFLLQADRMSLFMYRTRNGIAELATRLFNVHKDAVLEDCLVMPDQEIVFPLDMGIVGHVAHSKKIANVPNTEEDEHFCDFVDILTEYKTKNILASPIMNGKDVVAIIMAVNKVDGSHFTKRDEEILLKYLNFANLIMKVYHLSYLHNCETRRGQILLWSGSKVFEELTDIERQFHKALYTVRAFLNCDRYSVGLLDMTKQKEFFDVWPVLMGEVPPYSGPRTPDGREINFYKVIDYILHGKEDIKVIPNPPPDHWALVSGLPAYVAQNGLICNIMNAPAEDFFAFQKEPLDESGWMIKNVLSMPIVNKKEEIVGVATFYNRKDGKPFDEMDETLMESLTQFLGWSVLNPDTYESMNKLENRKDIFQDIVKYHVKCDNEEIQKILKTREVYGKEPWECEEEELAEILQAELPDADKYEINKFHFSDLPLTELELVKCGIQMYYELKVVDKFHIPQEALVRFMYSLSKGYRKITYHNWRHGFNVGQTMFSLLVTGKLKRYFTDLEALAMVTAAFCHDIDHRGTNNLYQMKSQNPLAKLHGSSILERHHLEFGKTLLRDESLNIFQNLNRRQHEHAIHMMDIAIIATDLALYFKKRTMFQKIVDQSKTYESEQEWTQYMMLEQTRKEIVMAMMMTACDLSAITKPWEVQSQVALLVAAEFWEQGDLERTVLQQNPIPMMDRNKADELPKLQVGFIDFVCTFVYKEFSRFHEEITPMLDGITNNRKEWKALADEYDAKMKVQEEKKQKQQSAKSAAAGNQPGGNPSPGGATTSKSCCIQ

Estrogen receptor beta = Estrogen receptor beta (Homo sapiens, UniProt Q92731)
Estrogen receptor beta, sequence (Q92731 whole entry): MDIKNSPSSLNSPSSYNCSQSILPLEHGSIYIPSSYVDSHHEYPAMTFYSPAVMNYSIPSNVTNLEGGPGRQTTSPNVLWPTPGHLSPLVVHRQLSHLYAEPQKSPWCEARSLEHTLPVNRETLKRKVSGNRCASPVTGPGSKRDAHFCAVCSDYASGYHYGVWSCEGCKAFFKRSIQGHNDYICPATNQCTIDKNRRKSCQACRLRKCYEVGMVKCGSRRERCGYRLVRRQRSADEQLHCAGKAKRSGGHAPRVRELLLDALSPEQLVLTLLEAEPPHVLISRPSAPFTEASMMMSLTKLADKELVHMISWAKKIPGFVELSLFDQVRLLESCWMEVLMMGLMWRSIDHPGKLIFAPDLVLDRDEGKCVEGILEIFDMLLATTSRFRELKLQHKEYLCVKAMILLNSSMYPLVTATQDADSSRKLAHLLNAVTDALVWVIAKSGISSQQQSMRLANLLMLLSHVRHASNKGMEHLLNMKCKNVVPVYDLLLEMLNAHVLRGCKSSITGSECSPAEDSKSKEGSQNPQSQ

D(1A) dopamine receptor [9] = molecular target: T4, D(1A) dopamine receptor
Estrogen receptor = molecular target: T5, Estrogen receptor (Homo sapiens, UniProt P03372); assay type: functional
T5 sequence (P03372 whole entry): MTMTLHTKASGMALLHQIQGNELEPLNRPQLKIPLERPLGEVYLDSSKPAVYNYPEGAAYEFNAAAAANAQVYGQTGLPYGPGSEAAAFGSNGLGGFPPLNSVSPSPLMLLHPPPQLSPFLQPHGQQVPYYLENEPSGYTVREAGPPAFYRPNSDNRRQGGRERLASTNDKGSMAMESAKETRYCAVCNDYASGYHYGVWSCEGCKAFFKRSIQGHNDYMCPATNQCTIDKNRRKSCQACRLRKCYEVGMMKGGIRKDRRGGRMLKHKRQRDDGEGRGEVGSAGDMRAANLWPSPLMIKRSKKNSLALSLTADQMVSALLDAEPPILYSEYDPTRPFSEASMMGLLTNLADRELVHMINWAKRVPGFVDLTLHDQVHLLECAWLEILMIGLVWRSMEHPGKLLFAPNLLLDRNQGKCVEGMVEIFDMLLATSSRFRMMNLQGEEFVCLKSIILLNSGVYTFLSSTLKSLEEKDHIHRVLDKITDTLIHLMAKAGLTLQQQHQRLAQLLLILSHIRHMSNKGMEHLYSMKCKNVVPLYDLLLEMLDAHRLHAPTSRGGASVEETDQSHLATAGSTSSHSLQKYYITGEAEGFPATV
Further: assay procedure not described here.

## CC(C)Cn1cnc2c(N)nc3ccccc3c21 [IMIQUIMOD]
Androgen receptor
  AC50: > 10 µM

## COC(=O)C1=C(C)NC(C)=C(C(=O)OC(C)(C)CN(C)CCC(c2ccccc2)c2ccccc2)C1c1cccc([N+](=O)[O-])c1 (stereo unspecified) [LERCANIDIPINE]
Androgen receptor
  AC50: > 30 µM
[1]
  AC50: > 50 µM
[2]
  AC50: > 50 µM

## C=CCC1(CC(C)C)C(=O)NC(=O)NC1=O [BUTALBITAL]
Androgen receptor
  AC50: > 10 µM

## COc1ccc2c3c1O[C@H]1[C@@H](O)C=C[C@H]4[C@@H](C2)N(C)CC[C@@]341 [CODEINE]
[3]
  AC50: > 30 µM
[4]
  AC50: > 10 µM
[1]
  AC50: > 30 µM
[5]
  AC50: > 10 µM

## CC(CC(c1ccccc1)c1ccccc1)NC(C)(C)C (stereo unspecified) [TERODILINE]
[1]
  AC50: 8.65 µM
[2]
  AC50: > 50 µM

## CN1CCC(=C2c3ccccc3CCc3sccc32)CC1 [PIZOTYLINE]
D(1A) dopamine receptor [6]
  AC50: 0.65 µM

## N#Cc1ccc([C@H]2CCc3cncn32)c(F)c1 [OSILODROSTAT]
D(1B) dopamine receptor
  AC50: > 10 µM
[7]
  AC50: > 10 µM
[8]
  AC50: > 10 µM
[4]
  AC50: > 10 µM
[5]
  AC50: > 10 µM

## CNS(=O)(=O)Cc1ccc2[nH]cc(CCN(C)C)c2c1
Estrogen receptor beta
  AC50: > 30 µM
[3]
  AC50: > 30 µM
[5]
  AC50: > 10 µM

## CCCN(CCC)C(=O)C(CCC(=O)O)NC(=O)c1ccccc1 (stereo unspecified) [PROGLUMIDE]
[3]
  AC50: > 30 µM

## O=C(O)C[C@H](O)C[C@H](O)/C=C/c1c(C2CC2)nc2ccccc2c1-c1ccc(F)cc1 [PITAVASTATIN]
Androgen receptor
  AC50: > 10 µM

## CN1CCN(CC/C=C2/c3ccccc3Sc3ccc(S(=O)(=O)N(C)C)cc32)CC1 [THIOTHIXENE]
Estrogen receptor beta
  AC50: > 30 µM
[3]
  AC50: > 30 µM
D(1A) dopamine receptor [6]
  AC50: 0.98 µM
D(1A) dopamine receptor [9]
  AC50: 0.019 µM
Androgen receptor
  AC50: > 30 µM
[5]
  AC50: > 10 µM

## Clc1ccc(CCCOCCCN2CCCCC2)cc1 [PITOLISANT]
[1]
  AC50: 32 µM
[2]
  AC50: 10.4 µM

## CCCCc1ncc(/C=C(\Cc2cccs2)C(=O)O)n1Cc1ccc(C(=O)O)cc1 [EPROSARTAN]
D(1B) dopamine receptor
  AC50: > 10 µM
[3]
  AC50: > 30 µM
[7]
  AC50: > 10 µM
[8]
  AC50: > 10 µM
[4]
  AC50: > 10 µM
[5]
  AC50: > 10 µM

## O=C(O)C1=C(CSc2nnnn2CS(=O)(=O)O)CS[C@@H]2[C@H](NC(=O)[C@H](O)c3ccccc3)C(=O)N12 [CEFONICID]
Androgen receptor
  AC50: > 30 µM

## COC(=O)[C@H]1[C@H]2C[C@@H]3c4[nH]c5cc(OC)ccc5c4CCN3C[C@H]2C[C@@H](OC(=O)/C=C/c2cc(OC)c(OC)c(OC)c2)[C@@H]1OC [RESCINNAMINE]
Androgen receptor
  AC50: > 10 µM

## NCC[C@H](O)C(=O)N[C@@H]1C[C@H](N)[C@@H](O[C@H]2O[C@H](CN)[C@@H](O)[C@H](O)[C@H]2O)[C@H](O)[C@H]1O[C@H]1O[C@H](CO)[C@@H](O)[C@H](N)[C@H]1O [AMIKACIN]
Androgen receptor
  AC50: > 10 µM

## CCc1c(Cl)c(O)c(Cl)c(O)c1C(=O)O[C@H]1[C@H](O)[C@H](OC)[C@H](OC/C2=C\C=C\C[C@H](O)/C(C)=C/[C@H](CC)[C@@H](O[C@@H]3OC(C)(C)[C@@H](OC(=O)C(C)C)[C@H](O)[C@@H]3O)/C(C)=C/C(C)=C/C[C@@H]([C@@H](C)O)OC2=O)O[C@@H]1C [FIDAXOMICIN]
Estrogen receptor beta
  AC50: > 30 µM
[3]
  AC50: > 30 µM
Androgen receptor
  AC50: 25 µM

## C/C(O)=C(\C#N)C(=O)Nc1ccc(C(F)(F)F)cc1 [TERIFLUNOMIDE]
[1]
  AC50: > 50 µM
Estrogen receptor
  AC50: > 30 µM

## CC(=O)O[C@H]1CC[C@@]2(C)C(=CC[C@@H]3[C@@H]2CC[C@]2(C)C(c4cccnc4)=CC[C@@H]32)C1 [ABIRATERONE ACETATE]
[1]
  AC50: > 30 µM
Estrogen receptor
  AC50: > 30 µM
[2]
  AC50: > 30 µM

## C=CCN1CCCC1CNC(=O)c1cc(S(N)(=O)=O)cc(OC)c1OC (stereo unspecified) [VERALIPRIDE]
D(1A) dopamine receptor [6]
  AC50: > 30 µM
D(1A) dopamine receptor [9]
  AC50: 0.013 µM

## CC(C)(C)c1cc(C(C)(C)C)c(NC(=O)c2c[nH]c3ccccc3c2=O)cc1O [IVACAFTOR]
Androgen receptor
  AC50: > 30 µM

## CN1C(=O)C(O)N=C(c2ccccc2)c2cc(Cl)ccc21 (stereo unspecified) [TEMAZEPAM]
Estrogen receptor beta
  AC50: > 30 µM
[3]
  AC50: > 30 µM

## COC(=O)C1=C(C)NC(C)=C(C(=O)OC2CCCN(Cc3ccccc3)C2)C1c1cccc([N+](=O)[O-])c1 (stereo unspecified) [BENIDIPINE]
[1]
  AC50: > 50 µM
[2]
  AC50: 1.9 µM

## CCCc1nc(C(C)(C)O)c(C(=O)OCc2oc(=O)oc2C)n1Cc1ccc(-c2ccccc2-c2nnn[nH]2)cc1 [OLMESARTAN MEDOXOMIL]
Estrogen receptor beta
  AC50: > 30 µM
[3]
  AC50: > 30 µM
